According to patent US20240401044A1, “EXPLOITING IL33 SECRETION AS A THERAPEUTIC TARGET IN CANCER” (ROSWELL PARK CANCER INSTITUTE CORPORATION HEALTH RESEARCH, …, priority 2021, published 2024):

How the values were obtained:
[1] = test system: IL33 expression; assay: Western blot of IL33 expression in PDAC cell lines treated with MEK and PI3K/AKT inhibitors; assay type: cell-based, mouse; conditions: cell lines derived from KPC tumor model of PDAC; inhibitor treatment for 24 hrs
Experimental: Results are shown as mean ±SEM. P values were calculated using Student t test. Chi-square test and spearman's correlation analysis was done for human PDAC TMA for statistical significance.
The above in silico findings were further validated by western blot analysis showing a complete loss of IL33 expression upon abolishing Kras* signaling (FIG. 3F-G, FIG. 4A-B). We further validated this finding using cell lines derived from KPC tumor model of PDAC (FIG. 1A).
Primary mouse cell lines were established in the laboratory (PJ-B6-4291, PJ-B6-4298) or gift from Dr. Ronald DePinho (AK-B6, AK14838, AK192, HY19636, HY15559) as described previously and were routinely cultured in RPMI 1640 (Invitrogen) 10% FBS (Invitrogen), 100 U/ml penicillin and 100 U/ml streptomycin. For inducible Kras derived cell lines, 1 μg/ml of doxycycline was directly added to the media. The cell lines were mycoplasma free, based on tests done monthly in the laboratory using Lonza's MycoAlert Mycoplasma Detection Kit assays with confirmatory tests by PCR-based assays.
Medium was removed and the cells were washed twice in ice-cold phosphate-buffered saline (PBS), scraped and collected as pellets after centrifugation at 1700 g for 5 min. The pelleted cells were incubated in radio immune precipitation assay (RIPA) buffer with proteinase and phosphatase inhibitors for 15 min. Lysates were then collected and centrifuged at 12000 rpm for 15 min at 4° C. Protein concentrations were measured using the DC Protein Assay Kit (Biorad, Cat. No. 5000111). SDS-PAGE and immunoblotting were performed as described previously in pre-cast bis-Tris 4-20% gradient gels (Invitrogen). The following antibodies were used: IL33 (R & D system AF3626); pAKT-S473 (CST 9271); pERK-p44/42 (CST 4370) and […] (Sigma-Aldrich, A2228).

[2] = test system: IL33; assay: IHC and IF of IL33 in fungal-depleted PDAC tumors; assay type: in vivo, mouse; conditions: fungal-depleted tumors after amphotericin B course (FIG. 9H)
Experimental: To further test the role of fungi in IL33 secretion and recruitment of ILC2 and TH2 cells in the PDAC TME, we evaluated the effect of Alternaria and Malassezia administered by gavage to PDAC tumor-bearing mice (FIG. 9G). First, fungi resident in the mice were depleted by a course of amphotericin B (i.e., 5 doses of amphotericin B, 200 μg/day by oral gavage), followed by a maintenance dose of 0.5 μg/ml in the drinking water for […]. Following depletion of fungi, we administered either Malassezia globosa or Alternaria alternata (10^8 fungal spores per mouse) by oral gavage into the tumor-bearing mice. At 28 days post-fungal treatment, the tumors were harvested for analyses. […] Intratumoral fungal depletion and repopulation were confirmed by fungal FISH analysis (FIG. 9H). Further, 18S rRNA sequencing confirmed increased presence of Alternaria and Malassezia sp. in the tumor and stool of the mouse receiving fungal transplantation (FIG. 9I, FIG. 10D-F). […] Similarly, Malassezia globosa or Alternaria alternata administration augmented the infiltration of ILC2 (FIG. 9K) and TH2 (FIG. 10G) cell populations within the TME. […]
Harvested tissues were immediately fixed in 10% formalin overnight and embedded in paraffin. […] Immunofluorescence slides were imaged with an Leica confocal Microscope and quantified with ImageJ. […]

[3] = test system: orthotopically transplanted PDAC tumors; assay: Antifungal (fungal depletion) treatment of mice with orthotopically transplanted PDAC tumors: tumor burden and survival; assay type: in vivo, C57BL/6 mice
Experimental: (§1) Followed by 3 weeks of amphotericin (0.5ug/ml) treatment in drinking water. After 3 weeks, PDAC cells were orthotopically transplanted and tumor progression studies were performed after 28-35 days. […] Red circles define the tumor boundaries. […] Followed by 3 weeks of amphotericin (0.5ug/ml) treatment in drinking water. After 3 weeks fungus (Alternaria alternata and Malassazia globose, 10^8 CFU/ml) was transplanted in mice. After 7 days of fungus transplantation, PDAC cells were orthotopically transplanted and tumor progression studies were performed after 28-35 days. […] Also, shown are the 18S rRNA sequencing in stool samples. Positive control-Alternaria is a sample of pure Alternaria culture. […] Scale bar 100 μm, unless indicated otherwise. Data are combined from three independent experiments and are presented as mean ±SEM, P values were calculated using Student t-test. ns, no significance.
For all experiments, C57BL/6J (Stock 000664) mice, aged 4-6 weeks were obtained from Jackson Laboratory unless otherwise mentioned. For orthotopic pancreas transplantation, mice were anaesthetized using isoflurane. A 2×2-mm portion of the left abdomen was shaved to facilitate transplantation. An incision was made in the left abdomen and the pancreas was gently exposed along with the spleen. Luciferase-expressing cells were slowly injected into the tail of the pancreas using a Hamilton syringe. Twenty microliters of cells (5×10^5) mixed with 20 μl Matrigel were injected. […]
Live in vivo imaging was performed at the Animal Imaging Facility at Roswell Park Comprehensive Cancer Center. […] Temperature and respiration were regulated using an MR-compatible small animal monitoring system (Model 1250, SAII, Stony Brook, NY.) Following scout scans, tumor burden was determined using multislice, fast spin echo scans in the axial and coronal planes. […] Tumor volumes were calculated by manual segmentation and voxel summation using commercially available, medical image processing software (Analyze 10.0, AnalyzeDirect, Overland Park, KS). […]

[4] = test system: ILC2 and TH2 cells in PDAC tumors; assay: Flow cytometry of tumor infiltrating type 2 immune cells after antifungal treatment; assay type: in vivo, C57BL/6 mice; conditions: oral amphotericin B
Experimental: as §1
For gastrointestinal fungal depletion, C57BL/6 mice were treated with 200 μg amphotericin B per day by oral gavage for five consecutive days, followed by 0.5 μg/ml amphotericin B treatment in drinking water for 21 days. Control groups were gavaged with 200 μl PBS for 5 consecutive days. After completion of antifungal treatment, species specific fungal repopulation was done with Alternaria alternata (ATCC 36376) and Malassezia globosa (MYA-4889). Fungi were administered (1×10^8 CFU/ml) by oral gavage. […]

Nc1cc(C(F)(F)F)c(-c2cc(N3CCOCC3)nc(N3CCOCC3)n2)cn1 [Buparlisib] was tested. Which “IL33 expression (western blot)” value [1] did it give?
The value was “did not lead to a reduction in IL33 expression”.

Which “IL33 expression (western blot)” value [1] does the source give for O=C(NOCC1CC1)c1ccc(F)c(F)c1Nc1ccc(I)cc1Cl [CI-1040] here?
Its value is “complete inhibition of IL33 expression”.

CCn1c(-c2nonc2N)nc2c(C#CC(C)(C)O)ncc(OCC3CCCNC3)c21 (stereo not drawn) [GSK-690696] was tested. Which “IL33 expression (western blot)” value [1] did it give?
Its value is “did not lead to a reduction in IL33 expression”.

What does the source list for C[C@@H]1[C@H](O)[C@@H](C)/C=C/C=C/C=C/C=C/C=C/C=C/C=C/[C@H](O[C@@H]2O[C@H](C)[C@@H](O)[C@H](N)[C@@H]2O)C[C@@H]2O[C@](O)(C[C@@H](O)C[C@@H](O)[C@H](O)CC[C@@H](O)C[C@@H](O)CC(=O)O[C@H]1C)C[C@H](O)[C@H]2C(=O)O [amphotericin B]?
IL33 localisation in PDAC tumors (IHC and IF) [2]: IL33 signal restricted predominantly to the nucleus of cancer cells; tumor burden (wet weight of PDAC tumors) ([3]; fungal depletion/repopulation experiment, 5 doses 200 μg/day by oral gavage, then 0.5 μg/ml in drinking water (FIG. 9J)): significantly decreased tumor burden; tumor burden ([3]; oral amphotericin B, orthotopic PDAC tumor-bearing mice (FIG. 9B-C, 10A)): decreased tumor burden; survival ([3]; oral amphotericin B, orthotopic PDAC tumor-bearing mice (FIG. 9D)): increased survival; tumor infiltrating ILC2 ([4]; relative to total CD45 positive cells (FIG. 9E)): reduced tumor infiltrating ILC2; tumor infiltrating TH2 cells ([4]; relative to total CD45 positive cells (FIG. 9F)): reduced
